The results in this text go back to US8258140B2 (Astrazeneca AB, priority 2009, dated 2012).

The experiment has as its target T1, Androgen Receptor (AR) in the LNCaP prostate carcinoma cell line (Homo sapiens, UniProt P10275, T878A).
T1 construct: cell based immuno-fluorescence assay using the LNCaP prostate epithelial cell line; host or cells: LNCaP clone FGC
T1 sequence (P10275 1-920 T878A): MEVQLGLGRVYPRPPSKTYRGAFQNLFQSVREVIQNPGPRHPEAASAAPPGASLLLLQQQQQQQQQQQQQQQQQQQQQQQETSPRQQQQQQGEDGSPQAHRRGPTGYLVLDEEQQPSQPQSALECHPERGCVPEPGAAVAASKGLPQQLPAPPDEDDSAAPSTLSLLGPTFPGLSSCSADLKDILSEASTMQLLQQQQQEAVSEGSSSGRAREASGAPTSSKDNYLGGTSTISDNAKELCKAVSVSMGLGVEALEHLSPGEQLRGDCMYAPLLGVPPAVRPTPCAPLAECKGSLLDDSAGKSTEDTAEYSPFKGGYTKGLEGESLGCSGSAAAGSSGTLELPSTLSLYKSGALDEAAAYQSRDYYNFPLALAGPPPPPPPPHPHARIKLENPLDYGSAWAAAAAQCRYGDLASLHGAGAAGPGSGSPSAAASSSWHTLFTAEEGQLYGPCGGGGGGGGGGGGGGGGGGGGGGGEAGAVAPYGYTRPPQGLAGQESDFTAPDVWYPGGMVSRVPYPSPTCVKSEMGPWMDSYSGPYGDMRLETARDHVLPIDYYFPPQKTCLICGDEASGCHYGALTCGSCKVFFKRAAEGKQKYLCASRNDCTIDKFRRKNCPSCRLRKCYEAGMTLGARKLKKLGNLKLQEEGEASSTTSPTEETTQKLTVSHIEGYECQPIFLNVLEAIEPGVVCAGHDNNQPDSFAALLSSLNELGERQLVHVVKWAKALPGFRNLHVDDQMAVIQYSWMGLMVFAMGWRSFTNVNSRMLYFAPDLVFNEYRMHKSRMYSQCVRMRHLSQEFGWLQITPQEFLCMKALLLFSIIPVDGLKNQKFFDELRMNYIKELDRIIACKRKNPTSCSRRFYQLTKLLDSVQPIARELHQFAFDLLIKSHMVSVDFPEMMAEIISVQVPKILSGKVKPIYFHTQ
Kind of experiment: LNCaP Androgen Receptor Down-Regulation Cell Assay (immunofluorescence end point). It counts as cell-based. The note with it: LNCaP cells, compound incubation 20-22 hours, concentration giving 50% reduction of the AR signal. Put shortly:
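LNCaP cells (6.5×10^3/well) in phenol-red-free RPMI with 5% charcoal-stripped FBS were treated with compound dilutions for 20–22 h at 37 °C. They were then formaldehyde-fixed, permeabilised, blocked and immunostained for AR with monoclonal antibody AR441.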
The molecule `CC(=O)N1CCN(CCCOc2ccc(C3CCN(C4=Nn5c(nnc5C(F)(F)F)CC4)CC3)cc2)CC1` [Example 4.1, 6-[4-[4-[3-(4-acetylpiperazin-1-yl)propoxy]phenyl]piperidin-1-yl]-3-(trifluoromethyl)-7,8-dihydro[1,2,4]triazolo[4,3-b]pyridazine] had an IC50 of 1.2 µM.

`CC(=O)N1CCN(CCOc2ccc(C3CCN(C4=Nn5c(nnc5C(F)(F)F)CC4)CC3)cc2)CC1` [Example 5.1, 6-(4-{4-[2-(4-acetylpiperazin-1-yl)ethoxy]phenyl}piperidin-1-yl)-3-(trifluoromethyl)-7,8-dihydro[1,2,4]triazolo[4,3-b]pyridazine] registered an IC50 of 1.8 µM.

The molecule `CN1CCN(CCOc2ccc(C3CCN(C4=Nn5c(nnc5C(F)(F)F)CC4)CC3)cc2)CC1=O` [Example 37, 1-methyl-4-[2-(4-{1-[3-(trifluoromethyl)-7,8-dihydro[1,2,4]triazolo[4,3-b]pyridazin-6-yl]piperidin-4-yl}phenoxy)ethyl]piperazin-2-one] registered a concentration for half-maximal inhibition (IC50) of 1.7 µM. `CC(=O)N1CCN(CCOc2ccc(C3CCN(C4=Nn5c(nnc5C(F)(F)F)CC4)CC3)cc2)C[C@H]1C` [Example 51, 6-[4-(4-{2-[(3R)-4-acetyl-3-methylpiperazin-1-yl]ethoxy}phenyl)piperidin-1-yl]-3-(trifluoromethyl)-7,8-dihydro[1,2,4]triazolo[4,3-b]pyridazine] displayed a half-maximal inhibitory concentration (IC50) of 0.25 µM.

In general, IC50 refers to the point on the concentration scale where inhibition reaches its midpoint. A high value points to lower potency.
